# Ends that are not written are not given here.
# Target: T1, HLA-A*11:01 (Homo sapiens, UniProt P04439, A114D/D185E/E176A/F33Y/L180Q/S129P/T187R)
# T1 construct: purchased Pure Protein L.L.C
# Assay: Fluorescence polarization competitive peptide-binding assay
# Method: Figure 1 Direct epitope discovery of WNV epitope GTL9. (A) RP-HPLC profile of HLA-A*11:01 peptides from uninfected (blue) and WNV-infected (red) cells. (B) MS ion spectra of HPLC fraction 50 from uninfected (black) and infected (red) cells. MS data were recorded for 300 scans. (C) Overlay of the MS/MS fragmentation pattern of ion 466.7 in the infected HPLC fraction 50 (identified as the GTL9 peptide; red) with the MS/MS fragmentation pattern for the GTL9 synthetic peptide (black). (D) Florescence polarization competitive binding assay with the GTL9 synthetic peptide and HLA-A*11:01.
# These six WNV peptides fit the reported A*11:01-binding motif. […] The fluorescence polarization assay used to assess A*11:01 binding categorizes peptides with IC50 values <5,000 nM as high affinity. In summary, six WNV ligands were discovered by direct elution from A*11:01, these ligands were sequenced by tandem MS, their sequence was confirmed with synthetic ligands, they bound well to A*11:01, they were of traditional length, and these ligands were consistent with the previously reported A*11:01 motif.
# MS ion maps were generated for HPLC fractions containing peptides. Fractions were ionized by using nanoelectrospray capillaries (Proxeon) into a QSTAR elite (Applied Biosystems) electrospray quadrupole time-of-flight mass spectrometer. Peptide sequences were determined manually by using the MASCOT software package (Matrix Science). Peptide binding to HLA-A*11:01 was determined using the florescence polarization method (Pure Protein L.L.C.).
row,Substance,IC50 [µM]
1,AIIEVDRSAAK [AII11],11.2
2,AVVVNPSVK [AVV9],2.25
3,GTLTSAINR [GTL9],1.13
4,KNMEKPGLK [KNM9],24.3
5,KSYETEYPK [KSY9],7.89
6,RVLSLIGLK [RVL9],0.334

# Target: HLA-A*11:01 (fluorescence polarisation peptide-binding assay)
# Assay: fluorescence polarisation; competitive binding assay of synthetic peptide with HLA-A*11:01 (Pure Protein L.L.C. method, ref. 45); IC50 <5,000 nM categorised as high affinity
row,Substance,IC50 [µM]
1,AII11 synthetic peptide (WNV NS5 2559-2569),11.2
2,AVV9 synthetic peptide (WNV NS4B 2458-2466),2.25
3,GTL9 synthetic peptide (WNV capsid 89-97),1.13
4,KNM9 synthetic peptide (WNV NS4B 2519-2527),24.3
5,KSY9 synthetic peptide (WNV NS3 1894-1902),7.88
6,RVL9 synthetic peptide (WNV capsid 23-31),0.334
